Here are results for 25 molecules from BindingDB's records for doi:10.1007/s10822-022-00478-x (Roche Innovation Center Basel, F. Hoffmann-La Roche Ltd., 2022).

What is called IC50 is the concentration at which inhibition is half-maximal. A higher IC50 goes with a need for much substance.

Structures are written as SMILES.

cAMP and cAMP-inhibited cGMP 3',5'-cyclic phosphodiesterase 10A, sequence (Q9Y233 as listed by the source): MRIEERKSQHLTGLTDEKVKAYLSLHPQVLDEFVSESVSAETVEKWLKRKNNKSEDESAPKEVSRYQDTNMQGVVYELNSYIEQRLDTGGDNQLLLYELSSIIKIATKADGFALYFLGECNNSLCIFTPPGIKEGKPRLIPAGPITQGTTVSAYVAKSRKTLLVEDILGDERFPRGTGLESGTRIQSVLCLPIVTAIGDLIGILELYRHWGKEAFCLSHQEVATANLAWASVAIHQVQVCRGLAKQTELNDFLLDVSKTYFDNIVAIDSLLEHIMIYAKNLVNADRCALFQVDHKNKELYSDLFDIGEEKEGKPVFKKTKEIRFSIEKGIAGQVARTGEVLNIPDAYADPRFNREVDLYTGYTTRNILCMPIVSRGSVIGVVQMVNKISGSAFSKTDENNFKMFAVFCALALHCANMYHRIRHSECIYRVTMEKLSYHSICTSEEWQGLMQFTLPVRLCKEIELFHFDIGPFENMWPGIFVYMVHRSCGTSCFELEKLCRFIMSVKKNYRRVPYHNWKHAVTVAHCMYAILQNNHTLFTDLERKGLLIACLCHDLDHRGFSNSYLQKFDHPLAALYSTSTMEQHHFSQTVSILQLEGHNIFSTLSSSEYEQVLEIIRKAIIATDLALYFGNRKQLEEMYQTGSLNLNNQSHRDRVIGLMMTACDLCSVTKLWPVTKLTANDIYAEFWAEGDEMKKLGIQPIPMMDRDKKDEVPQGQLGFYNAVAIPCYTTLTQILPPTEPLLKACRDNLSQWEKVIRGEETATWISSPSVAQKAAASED

The target in this assay is cAMP and cAMP-inhibited cGMP 3',5'-cyclic phosphodiesterase 10A (Homo sapiens, UniProt Q9Y233). Kind of assay: PDE10A assay. In outline:
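Scintillation proximity readout of [3H]cGMP hydrolysis (50 nM final substrate, 15 min) by 2 ng/well human PDE10A after 15 min compound preincubation at RT, pH 7.5 with MgCl2. Four-parameter logistic fit gave IC50, reported as pIC50.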
`Cc1c(Cl)ccc2nc(CCc3nc4ccc(Cl)c(C)n4n3)nn12` [Roche-Dataset for PDE10A, Compound 512] had an IC50 of 0.472 µM.

`O=C(Nc1ccn2nc(-c3ccccc3)nc2c1)c1ccno1` [Roche-Dataset for PDE10A, Compound 606] registered an IC50 of 2.35 µM.

In the case of `Cc1ncc(C)n2nc(/C=C/c3nc(N4CC[C@@H](C)[C@H]4C)nn3C)nc12` [Roche-Dataset for PDE10A, Compound 1115], 0.032 µM corresponded to half-maximal inhibition (IC50).

In turn, `CCN(CC)C(=O)c1c(C)noc1C(=O)Nc1ccn2nc(-c3ccccc3)nc2c1` [Roche-Dataset for PDE10A, Compound 258] had an IC50 of 3.12 µM.

In the case of `CCn1ncc(NC(=O)c2c(C(=O)N3CCC3)cnn2C)c1C(=O)NCC(C)C` [Roche-Dataset for PDE10A, Compound 1057], the IC50 was 0.594 µM.

The molecule `Cc1cc(NC(=O)c2c(C(=O)N3CCC3)cnn2C)nn1CC(F)F` [Roche-Dataset for PDE10A, Compound 1050] yielded a half-maximal inhibitory concentration (IC50) of 0.136 µM.

Turning to `CCN(C)c1nc2cc(NC(=O)c3c(C(=O)O)cnn3C)ccn2n1` [Roche-Dataset for PDE10A, Compound 717], the midpoint of inhibition, the IC50, lay at 0.284 µM.

Consider `COCCn1ccc(NC(=O)c2nc(Cl)ccc2Nc2cncnc2)n1` [Roche-Dataset for PDE10A, Compound 864], for which half-maximal inhibition (IC50) was put at 0.117 µM.

For the molecule `CNC(=O)[C@@H]1CCC[C@H]1NC(=O)c1nc(C2CC2)cnc1Nc1cncnc1` [Roche-Dataset for PDE10A, Compound 971], the IC50 stood at 1.14 µM.

Take `Cc1cnc(C)n2nc(/C=C/c3nc(N4CCCC4)nn3C3CC3)nc12` [Roche-Dataset for PDE10A, Compound 274]: the IC50 turned out to be 0.019 µM.

In turn, `Cn1ncc(C(=O)N2CCOCC2)c1C(=O)N[C@H]1CCn2cc(-c3ccccc3Cl)nc2C1` [Roche-Dataset for PDE10A, Compound 1009] displayed an IC50 of 0.436 µM.

`O=C(Nc1ccnn1-c1ccccn1)c1nc(C2CC2)ccc1Nc1cncnc1` [Roche-Dataset for PDE10A, Compound 435] gave a 50% inhibitory concentration (IC50) of 0.00343 µM.

In the case of `Cc1cn2nc(C#Cc3nc(N4CCCC4)nn3C)ccc2n1` [US9617271, 67], the IC50 worked out at 0.00921 µM.

Molecule `CCOC(=O)c1cnn(C)c1C(=O)Nc1ccn2nc(-c3ccnc(F)c3)nc2c1` [Roche-Dataset for PDE10A, Compound 280] displayed an IC50 of 0.79 µM.

With `O=C(Nc1ccnc(Cl)c1)c1ccc2cc(-c3ccccc3)nn2c1` [Roche-Dataset for PDE10A, Compound 310], inhibition was half-maximal at 0.037 µM (IC50).

`CCOc1cc(NC(=O)c2nc(C3CC3)cnc2Nc2cncnc2)ccn1` [Roche-Dataset for PDE10A, Compound 765]: it took 0.053 µM to reach half-maximal inhibition (IC50).

`O=C(NCC1CC1)c1cccc(NC(=O)c2nc(C3CC3)cnc2Nc2cncnc2)n1` [Roche-Dataset for PDE10A, Compound 880] came in with an IC50 of 0.00965 µM.

As for `CNC(=O)c1c(F)cc(F)cc1NC(=O)c1nc(C2CC2)cnc1Nc1cncnc1` [US8703768, 299], half-maximal inhibition (IC50) was put at 0.00032 µM.

Turning to `O=C(Nc1ccccc1C(=O)C1CCCCC1)c1nc(C2CC2)cnc1Nc1cncnc1` [Roche-Dataset for PDE10A, Compound 667], inhibition was half-maximal at 0.013 µM (IC50).

For the molecule `Cc1nc2ccccc2nc1OCc1nc(-c2ccc(Cl)cc2)cn1C` [Roche-Dataset for PDE10A, Compound 810], 0.179 µM corresponded to half-maximal inhibition (IC50).

Molecule `Cc1noc(C(=O)Nc2cc(-c3ccccn3)nn2C)c1Br` [Roche-Dataset for PDE10A, Compound 886] showed a concentration for half-maximal inhibition (IC50) of 6.22 µM.

Turning to `O=C(c1nc(C2CC2)cnc1Nc1cncnc1)N1CCC(O)(Cc2ccccc2)CC1` [Roche-Dataset for PDE10A, Compound 1044], the IC50 stood at 10 µM.

Molecule `Cn1cc(-c2ccccc2)nc1CCc1cnc2ccccc2n1` [US9834564, Compound 20] returned a half-maximal inhibitory concentration (IC50) of 0.021 µM.

`CCN(C)c1nc2cc(NC(=O)c3c(C(=O)N4CCOCC4)cnn3C)ccn2n1` [Roche-Dataset for PDE10A, Compound 493] had a half-inhibitory concentration (IC50) of 0.00555 µM.

In the case of `Cc1c(Cl)cc(Cl)c2nc(CCc3nccn3C)nn12` [Roche-Dataset for PDE10A, Compound 972], the IC50 came to 0.166 µM.
